Source: PubChem BioAssay AID1963839 (Molecular Pharmacology Branch, DTP, NCI, 2024)

System: 817829-284-R-J1-PDC complex spheroid viability
Assay: Anticancer human tumor 817829-284-R-J1-PDC patient-derived colon adenocarcinoma cell line growth inhibition [POLQ]
Details: for IC50: curve of first compound; for viability, T/C: stronger effect = lower value
Procedure, shortened: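 Patient-derived tumour cells were co-cultured with HUVEC and mesenchymal stem cells as multicellular spheroids at 37 °C. They were treated with POLQ inhibitors (novobiocin, ART-558, RP6685) alone or combined with other agents. Top concentrations were at or near clinical Cmax (otherwise 10 microM; SN-38 at 1 microM), decreasing in half-log steps.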

[1] = second compound 0.0316 µM, first compound 0.0316 µM
[2] = second compound 0.0316 µM, first compound 0.1 µM
[3] = second compound 0.1 µM, first compound 0.0316 µM
[4] = second compound 0.1 µM, first compound 0.1 µM
[5] = second compound 0.316 µM, first compound 0.0316 µM
[6] = second compound 0.316 µM, first compound 0.1 µM
[7] = second compound 1 µM, first compound 0.0316 µM
[8] = second compound 1 µM, first compound 0.1 µM
[9] = second compound 3.16 µM, first compound 0.0316 µM
[10] = second compound 3.16 µM, first compound 0.1 µM
[11] = second compound 10 µM, first compound 0.0316 µM
[12] = second compound 10 µM, first compound 0.1 µM
[13] = second compound 0.0316 µM, first compound 0.316 µM
[14] = second compound 0.0316 µM, first compound 1 µM
[15] = second compound 0.0316 µM, first compound 3.16 µM
[16] = second compound 0.0316 µM, first compound 10 µM
[17] = second compound 0.1 µM, first compound 0.316 µM
[18] = second compound 0.1 µM, first compound 1 µM
[19] = second compound 0.1 µM, first compound 3.16 µM
[20] = second compound 0.1 µM, first compound 10 µM
[21] = second compound 0.316 µM, first compound 0.316 µM
[22] = second compound 0.316 µM, first compound 1 µM
[23] = second compound 0.316 µM, first compound 3.16 µM
[24] = second compound 0.316 µM, first compound 10 µM
[25] = second compound 1 µM, first compound 0.316 µM
[26] = second compound 1 µM, first compound 1 µM
[27] = second compound 1 µM, first compound 3.16 µM
[28] = second compound 1 µM, first compound 10 µM
[29] = second compound 3.16 µM, first compound 0.316 µM
[30] = second compound 3.16 µM, first compound 1 µM
[31] = second compound 3.16 µM, first compound 3.16 µM
[32] = second compound 3.16 µM, first compound 10 µM
[33] = second compound 10 µM, first compound 0.316 µM
[34] = second compound 10 µM, first compound 1 µM
[35] = second compound 10 µM, first compound 3.16 µM
[36] = second compound 10 µM, first compound 10 µM
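Also: spheroids exposed to compounds for 7 days.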
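For viability, T/C in this document: 100% = DMSO vehicle-treated spheroids.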

`CC[C@@]1(O)C(=O)OCc2c1cc1n(c2=O)Cc2cc3c(CN(C)C)c(O)ccc3nc2-1` + Nc1ccc(C#CCN(C(=O)Cc2ncc(C(F)(F)F)cc2C(F)(F)F)c2ccc(F)cc2)nn1 showed an IC50 (second compound 0.0316 µM) of 8.46 nM, an IC50 (second compound 0.1 µM) of 9.72 nM and an IC50 (second compound 0.316 µM) of 11 nM. It also gave an IC50 (second compound 1 µM) of 8.84 nM, an IC50 (second compound 3.16 µM) of 12 nM and an IC50 (second compound 10 µM) of 6.8 nM. The viability, T/C (second compound 0.0316 µM, first compound 0.000316 µM) was 91.3%, the viability, T/C (second compound 0.0316 µM, first compound 0.001 µM) was 99% and the viability, T/C (second compound 0.0316 µM, first compound 0.00316 µM) was 85.9%. For the same compound, the viability, T/C (second compound 0.0316 µM, first compound 0.01 µM) was 43.2%, the viability, T/C [1] was 24.2% and the viability, T/C [2] was 15.9%. It also gave a viability, T/C (second compound 0.1 µM, first compound 0.000316 µM) of 90.2%, a viability, T/C (second compound 0.1 µM, first compound 0.001 µM) of 86% and a viability, T/C (second compound 0.1 µM, first compound 0.00316 µM) of 88.2%. For the same compound, the viability, T/C (second compound 0.1 µM, first compound 0.01 µM) was 48.9%, the viability, T/C [3] was 20.9% and the viability, T/C [4] was 17.3%. For the same compound, the viability, T/C (second compound 0.316 µM, first compound 0.000316 µM) was 106%, the viability, T/C (second compound 0.316 µM, first compound 0.001 µM) was 93.3% and the viability, T/C (second compound 0.316 µM, first compound 0.00316 µM) was 85%. It also gave a viability, T/C (second compound 0.316 µM, first compound 0.01 µM) of 54.4%, a viability, T/C [5] of 21.3% and a viability, T/C [6] of 17.9%. It also gave a viability, T/C (second compound 1 µM, first compound 0.000316 µM) of 111%, a viability, T/C (second compound 1 µM, first compound 0.001 µM) of 115% and a viability, T/C (second compound 1 µM, first compound 0.00316 µM) of 86.6%. The viability, T/C (second compound 1 µM, first compound 0.01 µM) was 45.5%, the viability, T/C [7] was 24.4% and the viability, T/C [8] was 15.7%. It also gave a viability, T/C (second compound 3.16 µM, first compound 0.000316 µM) of 95.1%, a viability, T/C (second compound 3.16 µM, first compound 0.001 µM) of 94.3% and a viability, T/C (second compound 3.16 µM, first compound 0.00316 µM) of 82%. It also gave a viability, T/C (second compound 3.16 µM, first compound 0.01 µM) of 57.2%, a viability, T/C [9] of 20.1% and a viability, T/C [10] of 13.9%. For the same compound, the viability, T/C (second compound 10 µM, first compound 0.000316 µM) was 93.8%, the viability, T/C (second compound 10 µM, first compound 0.001 µM) was 91.2% and the viability, T/C (second compound 10 µM, first compound 0.00316 µM) was 62.1%. For the same compound, the viability, T/C (second compound 10 µM, first compound 0.01 µM) was 43.2%, the viability, T/C [11] was 25.6% and the viability, T/C [12] was 15.1%.
Compound `COc1cc(C2c3cc4c(cc3C(OC3OC5COC(C)OC5C(O)C3O)C3COC(=O)C23)OCO4)cc(OC)c1O` (stereo unspecified) + Nc1ccc(C#CCN(C(=O)Cc2ncc(C(F)(F)F)cc2C(F)(F)F)c2ccc(F)cc2)nn1 has an IC50 (second compound 0.0316 µM) of 68.1 nM, an IC50 (second compound 0.1 µM) of 99.6 nM and an IC50 (second compound 0.316 µM) of 76.2 nM. For the same compound, the IC50 (second compound 1 µM) was 129 nM, the IC50 (second compound 3.16 µM) was 83.6 nM and the IC50 (second compound 10 µM) was 73.7 nM. For the same compound, the viability, T/C [1] was 67.2%, the viability, T/C [2] was 43.9% and the viability, T/C [13] was 15.4%. For the same compound, the viability, T/C [14] was 24.5%, the viability, T/C [15] was 13.7% and the viability, T/C [16] was 6.78%. For the same compound, the viability, T/C [3] was 100%, the viability, T/C [4] was 50.4% and the viability, T/C [17] was 18%. The viability, T/C [18] was 20.8%, the viability, T/C [19] was 12.4% and the viability, T/C [20] was 7.13%. The viability, T/C [5] was 88%, the viability, T/C [6] was 38.7% and the viability, T/C [21] was 15.3%. The viability, T/C [22] was 24.4%, the viability, T/C [23] was 13.6% and the viability, T/C [24] was 4.94%. It also gave a viability, T/C [7] of 79.9%, a viability, T/C [8] of 59.5% and a viability, T/C [25] of 16.7%. For the same compound, the viability, T/C [26] was 19.8%, the viability, T/C [27] was 11.6% and the viability, T/C [28] was 5.6%. The viability, T/C [9] was 74.6%, the viability, T/C [10] was 47.3% and the viability, T/C [29] was 17.4%. It also gave a viability, T/C [30] of 22.4%, a viability, T/C [31] of 12% and a viability, T/C [32] of 6.2%. The viability, T/C [11] was 71.9%, the viability, T/C [12] was 42.7% and the viability, T/C [33] was 18.8%. It also gave a viability, T/C [34] of 13.1%, a viability, T/C [35] of 10.7% and a viability, T/C [36] of 5.77%.
Compound `O=c1[nH]cc(F)c(=O)[nH]1` + COC1C(OC(N)=O)C(O)C(Oc2ccc3c(O)c(NC(=O)c4ccc(O)c(CC=C(C)C)c4)c(=O)oc3c2C)OC1(C)C has an IC50 (second compound 0.0316 µM) of 2400 nM, an IC50 (second compound 0.1 µM) of 8960 nM and an IC50 (second compound 0.316 µM) of 3420 nM. It also gave an IC50 (second compound 1 µM) of 2920 nM, an IC50 (second compound 3.16 µM) of 2130 nM and an IC50 (second compound 10 µM) of 8930 nM. The viability, T/C [1] was 97.6%, the viability, T/C [2] was 144% and the viability, T/C [13] was 102%. It also gave a viability, T/C [14] of 68.8%, a viability, T/C [15] of 42.6% and a viability, T/C [16] of 43.1%. It also gave a viability, T/C [3] of 90.7%, a viability, T/C [4] of 94% and a viability, T/C [17] of 92.5%. The viability, T/C [18] was 77.6%, the viability, T/C [19] was 50.2% and the viability, T/C [20] was 50%. The viability, T/C [5] was 80%, the viability, T/C [6] was 84.2% and the viability, T/C [21] was 70%. For the same compound, the viability, T/C [22] was 70.2%, the viability, T/C [23] was 51.1% and the viability, T/C [24] was 26.6%. The viability, T/C [7] was 98.3%, the viability, T/C [8] was 86.8% and the viability, T/C [25] was 95.1%. The viability, T/C [26] was 86.5%, the viability, T/C [27] was 47.2% and the viability, T/C [28] was 47.3%. The viability, T/C [9] was 128%, the viability, T/C [10] was 114% and the viability, T/C [29] was 108%. The viability, T/C [30] was 57.8%, the viability, T/C [31] was 50.4% and the viability, T/C [32] was 39.9%. It also gave a viability, T/C [11] of 107%, a viability, T/C [12] of 101% and a viability, T/C [33] of 77.9%. It also gave a viability, T/C [34] of 84.3%, a viability, T/C [35] of 62.3% and a viability, T/C [36] of 47.4%.
